Reference: PMC10508484, “Development and application of a PBPK modeling strategy to support antimalarial drug development” (CPT: Pharmacometrics & Systems Pharmacology, 2023)
“And” between values parts separate entries of the source, which are not always exact repeats. Equal values may be shown once. Read-outs that look alike come from different tables or passages of the source.

Legend:
[1] = In vitro flags for victim and perpetrator properties conferring DDI liability; type: in vitro ADME, human; details: in vitro flag, mainly based on in vitro determinations
[2] = cited from earlier work; for Log D pH 7.4: lumefantrine: ACD labs value, ref Charman et al., 2020 1
[3] = cited from earlier work
[4] = PBPK input, cited from earlier work
[5] = cited from earlier work; for CL renal: PBPK input, ref amodiaquine, DEAQ Winstanley et al., atovaquone Rolan et al., 1997 14, azithromycin Lalak et al., 1993 23, carboxyprimaquine Mihaly et al., 1987 29, DHA EMA Website, 44, mefloquine Schwartz et al., 1982 57, primaquine White, 1985 62, pyrimeth
[6] = PBPK simulation of drug-drug interactions (Simcyp V19); design: species or system human; details: ratio of simulated to clinically observed AUC ratio; DDI of the respective line of Table S3
Source text: Here, we provide three example applications where the available PBPK models were used to address questions relating to DDI assessment. […] Additional simulation methods are provided in Appendix S1.
All simulations, including the ones performed for the applications, were run using Version 19 of the Simcyp population-based PBPK simulator (Simcyp (Certara), Sheffield, UK) and unless stated otherwise, input parameters for all drugs are as specified (Supplementary Information Table S1). All simulations were run using ten virtual trials that were matched as closely as possible to the clinical study volunteers in terms of the number of subjects, their age, the proportion of males/females and according to the same study design.

[7] = cited from earlier work; remark: listed apart in the source
[8] = test system: Caco-2 cells; details: cited from earlier work
[9] = ref Charman et al., 2020 1; cited from earlier work
[10] = Hepatic / HLM intrinsic clearance, enzyme not defined; details: human
[11] = 1987 9, 1985 26, chloroquine Walker et al., doxycycline Raghuram et al., 1982 48, Nguyen et al., 1989 49, proguanil Jeppesen et al., 1997 34
[12] = midazolam 7.5 mg QD + piperaquine 960 mg QD, ref Eurartesim - EMA Website, 12
[13] = midazolam 15 mg SD (Day 3) + azithromycin 500 mg QD (3 Days), ref Yeates et al., 1996 6
[14] = midazolam 15 mg SD (Day 3) + azithromycin 500 mg QD (3 Days), ref Zimmermann et al., 1996 7
[15] = midazolam 15 mg SD (Day 5) + azithromycin 500 mg QD (Day 1), 250 mg (Days 2-5), ref Backman et al., 1995 5

## CC[C@H]1OC(=O)[C@H](C)[C@@H](O[C@H]2C[C@@](C)(OC)[C@@H](O)[C@H](C)O2)[C@H](C)[C@@H](O[C@@H]2O[C@H](C)C[C@H](N(C)C)[C@H]2O)[C@](C)(O)C[C@@H](C)CN(C)[C@H](C)[C@@H](O)[C@]1(C)O [Azithromycin, azithromycin]
[1]
  Risk as a perpetrator: CYP3A4 time‐dependent inhibitor
  Risk as a victim: Cleared by biliary excretion
[2]; ref PubChem/DrugBank
  Log P: 4.02
[3]; in vivo, 500 mg
  AUC Obs: 1.77 µg·h/mL
  Cmax Obs: 410 ng/mL
[4]; ref atovaquone Mepron Prescribing Information, 2008, Nixon et al., 2013 13, Rolan et al., 1997 14, azithromycin Foulds et al., 1990 20, chloroquine Ofori-Adjei et al., 1986 27, Walker et al., 1983 28, DHA Batty et al., 2004 41 (healthy volunteers), lumefantrine CDER submission 22-269, proguanil Wattanagoon et al., 1987 63, tafenoquine Dow et al., 2020 84
  fu: 0.69
[5]; [11]
  CL renal: 8.67 L/h

## COc1cc(NC(C)CCC(=O)O)c2ncccc2c1 (stereo not shown) [Carboxyprimaquine, carboxyprimaquine]
[3]; 15 mg QD (Day 14), 0-inf, ref Ward et al., 1985 14
  AUC Obs: 24.7 µg·h/mL
[3]; 15 mg QD (Day 14), ref Ward et al., 1985 14
  Cmax Obs: 1240 ng/mL
[3]; 15 mg SD, 0-24 h, ref Mihaly et al., 1985 12
  AUC Obs: 15.1 µg·h/mL
[3]; 15 mg SD, 0-inf, ref Ward et al., 1985 14
  AUC Obs: 14.2 µg·h/mL
[3]; 15 mg SD, ref Ward et al., 1985 14
  Cmax Obs: 736 ng/mL
[3]; 30 mg SD, 0-inf, ref Hanboonkunupakarn et al., 2014 13
  AUC Obs: 44 µg·h/mL
[3]; 30 mg SD, 0-inf, ref Jittamala et al., 2015 15
  AUC Obs: 47.2 µg·h/mL
[3]; 30 mg SD, ref Hanboonkunupakarn et al., 2014 13
  Cmax Obs: 959 ng/mL
[3]; 30 mg SD, ref Jittamala et al., 2015 15
  Cmax Obs: 1040 ng/mL
[3]; 45 mg SD, 0-24 h, ref Mihaly et al., 1985 12
  AUC Obs: 39.9 µg·h/mL

## C[C@H]1c2cccc(O)c2C(=O)C2=C(O)[C@]3(O)C(=O)C(C(N)=O)=C(O)[C@@H](N(C)C)[C@@H]3[C@@H](O)[C@@H]21 [Doxycycline, doxycycline]
[1]
  Risk as a perpetrator: None identified
  Risk as a victim: Cleared by renal and biliary excretion
[2]
  Log D pH 7.4: -0.2
[3]; 100 mg SD, 0-inf, first line, ref Malmborg, 1984 25
  AUC Obs: 40.1 µg·h/mL
[3]; 100 mg SD, 0-inf, ref Grahnen et al., 1994 24
  AUC Obs: 29.9 µg·h/mL
[3]; 100 mg SD, 0-inf, second line, ref Malmborg, 1984 25
  AUC Obs: 37.4 µg·h/mL
[3]; 100 mg SD, ref Grahnen et al., 1994 24
  Cmax Obs: 1750 ng/mL
[3]; 100 mg q24h, 312-408 h, ref Binh et al., 2009 28
  AUC Obs: 37.3 µg·h/mL
[3]; 100 mg q24h, ref Binh et al., 2009 28
  Cmax Obs: 3260 ng/mL
[3]; 200 mg SD, 0-inf, ref Wojcicki et al., 1985 26
  AUC Obs: 40.9 µg·h/mL
[3]; 200 mg SD, ref Wojcicki et al., 1985 26
  Cmax Obs: 2610 ng/mL
[3]; 200 mg q24h, malaria-infected, 0-24 h, ref Newton et al., 2005 27
  AUC Obs: 32.0 µg·h/mL
[3]; 200 mg q24h, malaria-infected, 144-168 h, ref Newton et al., 2005 27
  AUC Obs: 48.6 µg·h/mL
[3]; 200 mg q24h, malaria-infected, window 0-24 h, ref Newton et al., 2005 27
  Cmax Obs: 3170 ng/mL
[3]; 200 mg q24h, malaria-infected, window 144-168 h, ref Newton et al., 2005 27
  Cmax Obs: 4440 ng/mL
[4]; ref Charman et al., 2020 1
  fu: 0.23
[5]; [11]
  CL renal: 0.87 L/h
[5]; clinically observed, ref atovaquone Lavelle et al., 1994 17, chloroquine Walker et al., 1987 29, Gustafsson et al., 1983 30, doxycycline Raghuram et al., 1982 48, Nguyen et al., 1989 49, primaquine Mihaly et al., 1985 26, quinine White et al., 1983 77, Paintaud et al., 1993 78
  CL IV: 2.77 L/h

## Cc1ncc2n1-c1ccc(Cl)cc1C(c1ccccc1F)=NC2 [Midazolam, midazolam]
[6]
  AUC ratios Sim/Obs: 0.91 and 0.83 and 1.22
[7]; [12]
  AUC ratio Obs: ≤ 2 fold
  Cmax ratio Obs: ≤ 2 fold
[7]; [13]
  AUC ratio Obs: 1.19
  Cmax ratio Obs: 1.52
[7]; [14]
  AUC ratio Obs: 1.27
  Cmax ratio Obs: 1.29
[7]; [15]
  AUC ratio Obs: 0.87
  Cmax ratio Obs: 0.66

## CC(C)NCC(O)COc1cccc2ccccc12 (stereo not shown) [Propranolol, propranolol]
[8]; Caco-2
  Papp A-B of calibrator: 72 10-6 cm/s

## C=C[C@H]1C[N@@]2CC[C@H]1C[C@H]2[C@H](O)c1ccnc2ccc(OC)cc12 [Quinine, quinine]
[1]
  Risk as a perpetrator: CYP2D6 inhibitor
  Risk as a victim: Substrate of CYP3A4
[3]; in vivo, 550 mg
  AUC Obs: 50.89 µg·h/mL
  Cmax Obs: 2848 ng/mL
[9]
  B:P: 0.67

## COc1ncnc(NS(=O)(=O)c2ccc(N)cc2)c1OC [Sulfadoxine, sulfadoxine]
[1]
  Risk as a perpetrator: None identified
  Risk as a victim: Renally cleared
[10]
  fm additional / undefined metabolism: 10%
[2]
  Log D pH 7.4: -0.78
[3]; 500 mg SD, Caucasian, 0-inf, ref Weidekamm et al., 1982 35
  AUC Obs: 14168 µg·h/mL
[3]; 500 mg SD, Caucasian, ref Weidekamm et al., 1982 35
  Cmax Obs: 63200 ng/mL
[3]; 500 mg SD, South-East Asian, 0-inf, ref Sarikabhuti et al., 1988 44
  AUC Obs: 26689 µg·h/mL
[3]; 500 mg SD, South-East Asian, ref Sarikabhuti et al., 1988 44
  Cmax Obs: 77000 ng/mL
[3]; 500 mg weekly (20 weeks), 3360-3528 h, ref Schwartz et al., 1987 32
  AUC Obs: 12465 µg·h/mL
[3]; 500 mg weekly (20 weeks), ref Schwartz et al., 1987 32
  Cmax Obs: 121000 ng/mL
[3]; 1500 mg SD, 0-inf, ref Karunajeewa et al., 2009 43
  AUC Obs: 33284 µg·h/mL
[3]; 1500 mg SD, ref Karunajeewa et al., 2009 43
  Cmax Obs: 142000 ng/mL
[4]; ref Charman et al., 2020 1
  fu: 0.036
[8]; calibrated against propranolol, plasma as medium for atovaquone and piperaquine, ref Charman et al., 2020 1
  Caco-2 (Papp A-B): 15 10-6 cm/s
[5]; [11]
  CL renal: 0.035 L/h
[5]; clinically observed oral (in vivo) clearance, pyronaridine: blood, ref amodiaquine Winstanley et al., 1987 9, DEAQ Akande et al., 2015 8, Scarsi et al., 2014 35, Tarning et al., 2012 36, Orrell et al., 2008 37, DHA Na-Bangchang et al., 2004 42, lumefantrine Lefevre et al., 2002 52, Hoglund et al., 2015 53, mefloquine Charles et al., 2007 56, proguanil Jeppesen et al., 1997 34, pyronaridine Jittama
  CL PO: 0.039 L/h
[5]; in vivo
  fe (fraction excreted unchanged in urine): 90%
